Measured values: patent US10154974B1, “Use of abscisic acid for the prevention and treatment of malaria” (The Regents of the University of California, priority 2015, dated 2018)

Tests used:
[1] = ABA extraction from mouse plasma and quantification by ELISA; type: in vivo, mice
Method: (§1) Mice were euthanized on day 7 post-infection. Blood was collected by heart puncture, spun at 8,000 rpm for 8 minutes and the plasma collected for ABA quantification. Livers and spleens were collected, retained in 10% formalin for 24 hours and then stored in 70% ethanol before sectioning and staining with hematoxylin and eosin. Liver sections were blindly scored on a scale from 0 to 3 for pigment levels, Kupffer cell density, portal tract inflammation, hemozoin deposition, extramedullary hematopoiesis, sinusoidal leukocyte density, sinusoidal adherence of leukocytes, and presence of microabscesses. Spleen sections were blindly scored on a scale from 0 to 3 for hyperplasia, extramedullary hematopoiesis, pigment, and levels of histiocytes and neutrophils. Pathology scores of control and treated mice were analyzed by unpaired t-test.
ABA was extracted from mouse plasma as described (Engelberth, J Vis Exp, 2009, 28:1127). Briefly, 50 μL of plasma was added to 200 μL extraction buffer (1-propanol:H2O:concentrated HCL at a 2:1:0.002 volume ratio) and vortexed. […] Dried samples were re-eluted in 100% methanol and ABA levels determined using the Phytodetek Abscisic Acid ELISA kit (Agdia) according to the manufacturer's instructions. ABA levels in the plasma of control and ABA-supplemented mice, 4-5 per group, were analyzed by Mann Whitney test.

influenza = settings: ABA treatment; cited from earlier work
IgG1 and IgG2a = experiment: IgM and IgG antibody isotype concentrations in mouse plasma; type: in vivo, mice; settings: days 9, 11 and 13 post-infection
Method: FIG. 24 illustrates that ABA supplementation increases levels of IgG1 and IgG2a in plasma. Concentrations are shown of IgM and IgG antibody isotypes in mouse plasma with and without ABA supplementation on days 9, 11 and 13 post-infection with P. yoelii 17XNL. Data were analyzed by unpaired t-test.

liver = experiment: Liver histology scoring; type: in vivo, mice
Method: as §1

AsNOS = AsNOS transcript levels in mosquito midgut; type: in vivo, Anopheles stephensi; settings: midguts, relative to controls, 4-6 hours post-feeding
Method: For mosquito immune gene expression, 20 midguts were dissected from mosquitoes in each treatment group at 1, 2, 4, 6, 8 and 24 hours post-feeding. Midguts were sonicated and stored in Trizol at −20° C. for up to a week before RNA was extracted according to manufacturer's instructions. cDNA synthesis was carried out using QantiTect Reverse Transcription Kit (Qiagen) and 200 ng of cDNA used per reaction for qRT-PCR with Sybr Green (Applied Biosystems). Fold changes in expression levels were calculated using the comparative threshold cycle method. Data were normalized to the housekeeping gene ribosomal protein S7 and to the control treatment. Primers and cycling conditions for AsNOS, defensin, LRIM, TEP1, and APL1 were as previously described (Hauck E S, et al. Microbes Infect. 2013; 15:775-87). […] Samples were analyzed in triplicate with 250 ng of cDNA per reaction to confirm uniformity of amplification. […] All expression data were analyzed by one sample t-test.
Transcript levels of a panel of immune genes previously described to play a role in the mosquito immune response to malaria parasites were examined. […] Mosquitoes were provided with a P. falciparum-infected bloodmeal supplemented with 100 nM ABA or with an equivalent volume of diluent as control, then analyzed at 1-24 hours post feeding.

[2] = system: peroxisome proliferator activated receptor gamma (PPARγ); experiment: PPARγ transcript levels in mouse liver and spleen; type: in vivo, mice; settings: day 7 of infection
Method: For mosquito immune gene expression, 20 midguts were dissected from mosquitoes in each treatment group at 1, 2, 4, 6, 8 and 24 hours post-feeding. Midguts were sonicated and stored in Trizol at −20° C. for up to a week before RNA was extracted according to manufacturer's instructions. cDNA synthesis was carried out using QantiTect Reverse Transcription Kit (Qiagen) and 200 ng of cDNA used per reaction for qRT-PCR with Sybr Green (Applied Biosystems). Fold changes in expression levels were calculated using the comparative threshold cycle method. Data were normalized to the housekeeping gene ribosomal protein S7 and to the control treatment. Primers and cycling conditions for AsNOS, defensin, LRIM, TEP1, and APL1 were as previously described (Hauck E S, et al. Microbes Infect. 2013; 15:775-87). For gene expression analysis of mouse liver and spleen, organs were flash frozen after necropsy and stored at −80° C. before RNA was extracted in Trizol and cDNA synthesized. Real-time PCR was performed using TaqMan probe-based expression assays for mouse NOS2, PPARγ (Mm00440940), and β-actin (Applied Biosystems) with volumes and cycling conditions as previously described (Chau et al., Infect Immun, 2013, 81:3515-26). Samples were analyzed in triplicate with 250 ng of cDNA per reaction to confirm uniformity of amplification. […] All expression data were analyzed by one sample t-test.

spleen = experiment: Spleen histology scoring; type: in vivo; settings: P. yoelii-infected mice
Method: as §1

[3] = infected mice, day 7 post-infection

## CC1=CC(=O)CC(C)(C)[C@@]1(O)/C=C/C(C)=C\C(=O)O (racemic) [ABA, (2Z,4E)-5-[(1S)-1-hydroxy-2,6,6-trimethyl-4-oxocyclohex-2-en-1-yl]-3-methylpenta-2,4-dienoic acid]
[1]; P. yoelii infection, vs non-supplemented infected mice
  increase of ABA levels in plasma: over 6 fold
[1]; oral supplementation, absence of infection
  ABA levels in plasma: did not alter
influenza
  vascular infiltrates: decreased
  viral load: no effect
IgG1 and IgG2a
  levels of IgG1 in plasma: increases
  levels of IgG2a in plasma: increases
liver; absence of infection
  number of sinusoidal leukocytes in the liver: decreased
liver; [3]
  adhered leukocytes in the liver: fewer
  microabscesses in the liver: fewer
liver; liver, P. yoelii-infected mice
  hemozoin deposition, pigment, portal tract inflammation, extramedullary hematopoeisis, Kupffer cell density: not altered
AsNOS
  AsNOS transcript levels induction: up to 13 fold
[2]
  transcript levels of PPARγ: increased
spleen
  histiocyte density, pigment deposition, extramedullary hematopoiesis in the spleen: not altered
  lymphoid hyperplasia of the spleen: reduced
